Results taken from US20060128810A1, “Remedies for allergic diseases” (Kyoto University, priority 2002, published 2006).

Tests used:
[1] = test system: OVA-sensitized mouse asthma model; experiment: OVA-sensitized mouse asthma model, number of inflammatory cells in BALF; type: in vivo, mouse (C57/BL6); conditions: subcutaneous; for neutrophil number in BALF: FIG. 2
Excerpt: An asthma reaction was induced using a wild-type mouse (C57/BL6) that had previously been sensitized with an antigen of OVA twice (day 0 and day 12) by inhalation sensitization at intervals of four days a total of three times (day 22, day 26, and day 30). Subsequently, the change in the number of inflammatory cells in BALF that was an indicator of an allergic reaction was examined.
That is, a compound having an agonistic activity to EP3 receptor is effective in therapy of an allergic disease such as asthma, and a selective agonistic compound to EP3 receptor can be expected to induce a more remarkable therapeutic effect.

[2] = test system: extracted lung of a sensitized wild-type mouse; experiment: Histamine and LT release from extracted lung of sensitized wild-type mouse by in vitro antigen stimulation
Description: The inventors of the present invention have studied on involvement of EP3 receptor in allergy reactions using the method already reported in a literature (Science, 287, 2013-(2000)). Specifically, the asthma condition was induced by inhalation of ovalbumin (hereinafter, abbreviated as OVA) in an EP3 receptor-deficient mouse, and the lung condition was analyzed. […] In addition, the suppression of the amount of histamine released from the sensitized lung by the agonist for the EP3 receptor causes only improvement of the portion enhanced by indomethacin. […] The inventors of the present invention have analyzed an EP3 (one of the PGE2 receptor subtypes) gene-deficient mouse and have already elucidated that EP3 is involved in crisis of an allergic reaction from the results of significant increase in the amount of infiltrated eosinophilics in a bronchoalveolar lavage fluid (hereinafter, abbreviated as BALF), and more significant increase in the number of infiltrated cells into a lung tissue and in the amount of Th2 cytokine in the mouse. Furthermore, they have found out that the amount of a chemical mediator that is released by in vitro antigenic stimulation of the lung of a sensitized wild-type mouse is increased by indomethacin which is a PGH-producing enzyme (cyclooxygenase) inhibitor and is suppressed by an agonist for EP3 receptor. […]

[3] = 10 μg/kg twice a day, day 22 to day 33, FIG. 1
[4] = 10 μg/kg twice a day, day 22 to day 33

Compound | eosinophil number in BALF [1, 3] | neutrophil number in BALF [1, 4] | eosinophil number in BALF ([1]; 200 μg/kg twice a day, FIG. 3) | amount of LT released from the extracted lung [2] | amount of histamine released from the extracted lung [2]
CCCCC[C@@H](/C=C/[C@H]1[C@H](OC)CC(=O)[C@@H]1C/C=C\CCCC(=O)O)OC [compound (I-1), 11α,15α-dimethoxy-9-oxoprosta-5Z,13E-dienoic acid] | decreased significantly | decreased significantly | – | – | –
CCCCC(C)(C)[C@H](O)/C=C/[C@H]1[C@H](O)CC(=O)[C@@H]1C/C=C\CCCC(=O)O [dmPGE2, 16,16-dimethyl PGE2] | no significant effect | no significant effect | significant effect | – | –
COc1ccc2c(c1)c(CC(=O)O)c(C)n2C(=O)c1ccc(Cl)cc1 [indomethacin] | – | – | – | increase | increase
